assay: Inhibition of Escherichia coli UTI89 FimH-mediated biofilm formation after 48 hrs by crystal violet staining-based assay

Row | Structure (SMILES) | IC50 [nM]
1 | Cc1cc(-c2ccc3cc[nH]c(=O)c3c2)ccc1O[C@H]1O[C@H](CO)[C@@H](O)[C@H](O)[C@@H]1O | 130
2 | Cc1cc(-c2cccc3cnccc23)ccc1O[C@H]1O[C@H](CO)[C@@H](O)[C@H](O)[C@@H]1O | 140
3 | Cc1cc(-c2ccc3c(c2)C(=O)NCC3)ccc1O[C@H]1O[C@H](CO)[C@@H](O)[C@H](O)[C@@H]1O | 250
4 | CNC(=O)c1cccc(-c2ccc([C@@H](O)[C@H]3O[C@H](CO)[C@@H](O)[C@H](O)[C@@H]3O)cc2)c1 | 900
5 | Cc1cc(-c2ccc3ccnc(N)c3c2)ccc1O[C@H]1O[C@H](CO)[C@@H](O)[C@H](O)[C@@H]1O | 340
6 | CNC(=O)c1cccc(-c2ccc([C@H](O)[C@H]3O[C@H](CO)[C@@H](O)[C@H](O)[C@@H]3O)c(C)c2)c1 | 11000
7 | CNC(=O)c1cccc(-c2ccc([C@@H](O)[C@H]3O[C@H](CO)[C@@H](O)[C@H](O)[C@@H]3O)c(C)c2)c1 | 80
8 | CNC(=O)c1cccc(-c2ccc(O[C@H]3O[C@H](CO)[C@@H](O)[C@H](O)[C@@H]3O)cc2)c1 | 1350
9 | Cc1cc(-c2ccc3c(c2)C(=O)NCC3)ccc1[C@@H](O)[C@H]1O[C@H](CO)[C@@H](O)[C@H](O)[C@@H]1O | 40
10 | Cc1cc(-c2ccc3cc[nH]c(=O)c3c2)ccc1[C@@H](O)[C@H]1O[C@H](CO)[C@@H](O)[C@H](O)[C@@H]1O | 30
11 | Cc1cc(-c2ccc3ccnc(N)c3c2)ccc1[C@@H](O)[C@H]1O[C@H](CO)[C@@H](O)[C@H](O)[C@@H]1O | 40
12 | Cc1cc(-c2cccc3cnccc23)ccc1[C@@H](O)[C@H]1O[C@H](CO)[C@@H](O)[C@H](O)[C@@H]1O | 600
13 | CNC(=O)c1cccc(-c2ccc([C@H](O)[C@H]3O[C@H](CO)[C@@H](O)[C@H](O)[C@@H]3O)cc2)c1 | 38000
14 | CNC(=O)c1cccc(-c2ccc(O[C@H]3O[C@H](CO)[C@@H](O)[C@H](O)[C@@H]3O)c(C)c2)c1 | 150

— BindingDB's records for doi:10.1021/acs.jmedchem.6b00948 (Fimbrion Therapeutics, 2016)
